For the experiment, the target named is T1, LXRβ (Homo sapiens, UniProt P55055).
T1 construct: Co-transfection expression plasmids, comprising full-length LXRα (pCMX-h LXRα[…] or LXRβ (pCMX-hLXRβ)); expressed in transfected cells; host or cells: CV-1 African Green Monkey Kidney Cells
T1 sequence (P55055 1-460): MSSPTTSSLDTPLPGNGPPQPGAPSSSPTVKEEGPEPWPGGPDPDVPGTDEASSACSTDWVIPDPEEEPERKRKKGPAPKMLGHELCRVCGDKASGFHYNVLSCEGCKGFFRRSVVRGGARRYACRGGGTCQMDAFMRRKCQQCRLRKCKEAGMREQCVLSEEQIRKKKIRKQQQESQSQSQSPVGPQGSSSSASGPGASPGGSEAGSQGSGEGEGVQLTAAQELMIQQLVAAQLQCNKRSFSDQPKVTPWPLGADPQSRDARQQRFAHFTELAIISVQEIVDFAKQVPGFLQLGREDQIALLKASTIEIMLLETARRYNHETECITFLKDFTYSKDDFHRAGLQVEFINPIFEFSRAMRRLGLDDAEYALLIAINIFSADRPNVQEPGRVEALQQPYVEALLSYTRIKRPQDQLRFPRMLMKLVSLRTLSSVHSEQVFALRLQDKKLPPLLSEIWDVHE
T1 sequence (P19793 1-462 partner): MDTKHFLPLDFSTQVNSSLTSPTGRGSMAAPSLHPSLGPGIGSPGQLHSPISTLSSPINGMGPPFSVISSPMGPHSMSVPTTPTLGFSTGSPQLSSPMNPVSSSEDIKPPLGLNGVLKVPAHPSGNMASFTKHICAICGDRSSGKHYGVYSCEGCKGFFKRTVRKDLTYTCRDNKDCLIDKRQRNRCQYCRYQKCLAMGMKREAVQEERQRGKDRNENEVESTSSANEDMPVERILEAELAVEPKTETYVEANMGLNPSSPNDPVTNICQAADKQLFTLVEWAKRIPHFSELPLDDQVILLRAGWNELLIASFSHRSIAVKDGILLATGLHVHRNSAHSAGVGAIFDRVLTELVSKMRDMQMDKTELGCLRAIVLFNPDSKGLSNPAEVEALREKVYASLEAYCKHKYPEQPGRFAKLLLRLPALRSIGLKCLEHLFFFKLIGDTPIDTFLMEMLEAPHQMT
The experiment can be described thus: Co-transfection assay (LXRE luciferase reporter), LXRβ. It counts as cell-based. As to conditions: for EC50: CV-1 cells transfected with pCMX-hLXRβ and LXREx1-Tk-Luciferase, 20 hours incubation; for Emax: LXRβ co-transfection, relative to high control 1-(2,4-difluorobenzyl)-2-oxo-6-(4-phenoxyphenyl)-4-(trifluoromethyl)-1,2-dihydropyridine-3-carbonitrile, read-out: % Efficacy. The essentials: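 CV-1 cells transiently co-transfected with full-length human LXRβ (or LXRα), LXREx1-Tk-luciferase reporter and β-galactosidase control; compound added (10 μM final in single-point, 11-point ½-log curves, ≤0.5% DMSO) for 20 h at 37 °C. Luciferase read; EC50 from four-parameter fit, efficacy relative to reference agonist high control.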
(Reporter assays use an easily measured gene product as a stand-in for the process of interest.)

In general, EC50 refers to the concentration needed to bring the measured effect to its halfway point. A lower EC50 goes with an effect from little substance. For `Cc1nc(-c2ccccc2C(F)(F)F)c(-c2cc(-c3cc(F)c(CO)c(S(C)(=O)=O)c3)ccc2-n2cc(C(F)(F)F)nc2C)o1` [Example 630, (3-fluoro-3′-(2-methyl-4-(2-(trifluoromethyl)phenyl)oxazol-5-yl)-4′-(2-methyl-4-(triftuoromethyl)-1H-imidazol-1-yl)-5-(methylsulfonyl)-[1,1′-biphenyl]-4-yl)methanol], the EC50 was found to be 103 nM and the Emax is 30%.

For the compound `Cc1nc(-c2cc(-c3cccc(S(C)(=O)=O)c3)ccc2-n2cc(C(F)(F)F)nc2C)c(-c2ccc(F)cc2)o1` [Example 505, 5-(4-fluorophenyl)-2-methyl-4-(4-(2-methyl-4-(trifluoromethyl)-1H-imidazol-1-yl)-3′-(methylsulfonyl)biphenyl-3-yl)oxazole], it took 144 nM to reach a half-maximal effect (EC50) and the Emax turned out to be 87%.

Turning to `Cc1nc(-c2cc(-c3cccc(S(C)(=O)=O)c3)ccc2-n2cc(C(F)(F)F)nc2C)c(-c2ccc(C)c(F)c2)o1` [Example 504, 5-(3-fluoro-4-methylphenyl)-2-methyl-4-(4-(2-methyl-4-(trifluoromethyl)-1H-imidazol-1-yl)-3′-(methylsulfonyl)biphenyl-3-yl)oxazole], the EC50 was found to be 91 nM and the Emax turned out to be 77%.

For `Cc1nc(C(F)F)c(C)n1-c1ccc(-c2cc(F)c(CO)c(S(C)(=O)=O)c2)cc1-n1nncc1-c1ccc(Cl)cc1` [Example 231, (3′-(5-(4-chlorophenyl)-1H-1,2,3-triazol-1-yl)-4′-(4-(difluoromethyl)-2,5-dimethyl-1H-imidazol-1-yl)-3-fluoro-5-(methylsulfonyl)-[1,1′-biphenyl]-4-yl)methanol], the EC50 came to 1680 nM and the Emax is 37%.

Regarding `Cc1nc(-c2cc(-c3ccc(C)c(S(C)(=O)=O)c3)ccc2-n2cc(C(F)(F)F)nc2C)c(-c2cc(F)c(OC(F)F)c(F)c2)o1` [Example 470, 5-(4-(difluoromethoxy)-3,5-difluorophenyl)-2-methyl-4-(4′-methyl-4-(2-methyl-4-(trifluoromethyl)-1H-imidazol-1-yl)-3′-(methylsulfonyl)biphenyl-3-yl)oxazole], the EC50 was determined as 109 nM and the Emax was 56%.

In the case of `Cc1nc(C(F)(F)F)cn1-c1ccc(-c2cccc(S(C)(=O)=O)c2)cc1-n1nncc1-c1ccc2c(c1)OCO2` [Example 29, 5-(1,3-benzodioxol-5-yl)-1-{3′-(methylsulfonyl)-4-[2-methyl-4-(trifluoromethyl)-1H-imidazol-1-yl]biphenyl-3-yl}-1H-1,2,3-triazole], the EC50 is 605 nM and the Emax is 65%.

As for `Cc1nc(-c2cc(-c3cccc(S(C)(=O)=O)c3)ccc2-n2cc(C(F)(F)F)nc2C)c(-c2ccc(OC(F)F)cc2)o1` [Example 495, 5-(4-(difluoromethoxy)phenyl)-2-methyl-4-(4-(2-methyl-4-(trifluoromethyl)-1H-imidazol-1-yl)-3′-(methylsulfonyl)biphenyl-3-yl)oxazole], the EC50 stood at 71 nM and the Emax is 108%.

In the case of `Cc1nc(C(F)(F)F)cn1-c1c(F)cc(-c2cccc(S(C)(=O)=O)c2)cc1-n1nncc1-c1ccc(OC(F)(F)F)cc1` [Example 201, 1-{5-fluoro-3′-(methylsulfonyl)-4-[2-methyl-4-(trifluoromethyl)-1H-imidazol-1-yl]biphenyl-3-yl}-5-{4-[(trifluoromethyl)oxy]phenyl)-1H-1,2,3-triazole], the EC50 was found to be 127 nM and the Emax amounted to 81%.

Turning to `Cc1nc(-c2cc(-c3cc(F)c(CO)c(S(C)(=O)=O)c3)ccc2-n2cc(C(F)(F)F)nc2C)c(-c2ccc(OC(F)F)c(OC3CC3)c2)o1` [Example 387, (3′-(5-(3-cyclopropoxy-4-(difluoromethoxy)phenyl)-2-methyloxazol-4-yl)-3-fluoro-4′-(2-methyl-4-(trifluoromethyl)-1H-imidazol-1-yl)-5-(methylsulfonyl)biphenyl-4-yl)methanol], the EC50 was found to be 19 nM and the Emax was determined as 73%.

Turning to `Cc1nc(C(F)(F)F)cn1-c1ccc(-c2cccc(S(C)(=O)=O)c2)cc1-n1nncc1-c1ccc(OCC(F)(F)F)cc1` [Example 31, 1-{3′-(methylsulfonyl)-4-[2-methyl-4-(trifluoromethyl)-1H-imidazol-1-yl]biphenyl-3-yl}-5-{4-[(2,2,2-trifluoroethyl)oxy]phenyl}-1H-1,2,3-triazole], it took 606 nM to reach a half-maximal effect (EC50) and the Emax came out at 90%.

In the case of `Cc1nc(-c2cc(-c3cc(F)c(CO)c(S(C)(=O)=O)c3)ccc2-n2cc(C(F)(F)F)nc2C)c(-c2ccc(Cl)cc2Cl)o1` [Example 488, (3′-(5-(2,4-dichlorophenyl)-2-methyloxazol-4-yl)-3-fluoro-4′-(2-methyl-4-(trifluoromethyl)-1H-imidazol-1-yl)-5-(methylsulfonyl)biphenyl-4-yl)methanol], the response was half-maximal at 17 nM (EC50) and the Emax came out at 66%.

For `Cc1nc(-c2cc(-c3cc(F)c(CO)c(S(C)(=O)=O)c3)ccc2-n2cc(C(F)(F)F)nc2C)c(-c2ccc(SC(F)(F)F)cc2)o1` [Example 543], the EC50 came to 67 nM and the Emax is 48%.

In the case of `Cc1nc(C(F)(F)F)cn1-c1ccc(-c2cccc(S(C)(=O)=O)c2)cc1-n1nncc1-c1ccc(F)cn1` [Example 77, 5-fluoro-2-(1-{3′-(methylsulfonyl)-4-[2-methyl-4-(trifluoromethyl)-1H-imidazol-1-yl]biphenyl-3-yl}-1H-1,2,3-triazol-5-yl)pyridine], the response was half-maximal at 3330 nM (EC50) and the Emax came out at 63%.

`Cc1nc(-c2cc(-c3cc(F)c(CO)c(S(C)(=O)=O)c3)ccc2-n2cc(C(F)(F)F)nc2C)c(-c2ccc(OC(F)F)cc2)o1` [Example 496, (3′-(5-(4-(difluoromethoxy)phenyl)-2-methyloxazol-4-yl)-3-fluoro-4′-(2-methyl-4-(trifluoromethyl)-1H-imidazol-1-yl)-5-(methylsulfonyl)biphenyl-4-yl)methanol]: the EC50 turned out to be 48 nM and the Emax stood at 116%.

Consider `Cc1nc(C(F)(F)F)cn1-c1ccc(-c2ccc(CO)c(S(C)(=O)=O)c2)cc1-c1nc(CC(C)O)oc1-c1ccc(OC(F)(F)F)cc1` (stereo not shown) [Example 535, 1-(4-(4′-(hydroxymethyl)-4-(2-methyl-4-(trifluoromethyl)-1H-imidazol-1-yl)-3'-(methylsulfonyl)-[1,1′-biphenyl]-3-yl)-5-(4-(trifluoromethoxy)phenyl)oxazol-2-yl)propan-2-ol], for which the midpoint of the response, the EC50, lay at 617 nM and the Emax is 62%.

On to `Cc1nc(C(F)(F)F)cn1-c1ccc(-c2cccc(S(C)(=O)=O)c2)cc1-n1nncc1-c1ccc(F)c(OC(F)(F)F)c1` [Example 46, 5-{4-fluoro-3-[(trifluoromethyl)oxy]phenyl}-1-{3′-(methylsulfonyl)-4-[2-methyl-4-(trifluoromethyl)-1H-imidazol-1-yl]biphenyl-3-yl}-1H-1,2,3-triazole], for which a half-maximal effect (EC50) was put at 2310 nM and the Emax stood at 62%.

On to `Cc1nc(C(F)(F)F)cn1-c1c(F)cc(-c2cc(F)c(CO)c(S(C)(=O)=O)c2)cc1-n1nncc1-c1ccc(Cl)cc1Cl` [Example 200, {3′-[5-(2,4-dichlorophenyl)-1H-1,2,3-triazol-1-yl]-3,5′-difluoro-5-(methylsulfonyl)-4′-[2-methyl-4-(trifluoromethyl)-1H-imidazol-1-yl]biphenyl-4-yl}methanol], for which a half-maximal response (EC50) required 74 nM and the Emax came to 83%.

Source of the values: patent US9834542B2, “LXR modulators” (BRISTOL-MYERS SQUIBB COMPANY, priority 2013, dated 2017).
